Results: patent US20230372357A1, “STABLE PHARMACEUTICAL COMPOSITION” (SANTEN PHARMACEUTICAL CO., LTD., priority 2020, published 2023)

Experiments:
[1] = intracameral injection; cited from earlier work
[2] = Finding at development stage: compound dissolved as aqueous composition; type: physicochemical

Row | Compound | intraocular pressure [1] | hydrolysis of the compound in an aqueous composition ([2]; dissolved and prepared in the form of an aqueous composition) | degradation of the compound under light irradiation ([2]; under the light irradiation)
1 | CCN(CC)CC1CCCCN1CC(=O)N1c2ccccc2C(=O)Nc2cccnc21 (stereo not drawn) [AFDX0116, 11-[2-[2-[(diethylamino)methyl]-1-piperidinyl]acetyl]-5,11-dihydro-6H-pyrido[2,3-b][1,4]benzodiazepin-6-one] | decreased | – | –
2 | CCN(CC)C[C@H]1CCCCN1CC(=O)N1c2ccccc2C(=O)Nc2cccnc21 [AFDX0250, (+)-11-[2-[2-[(diethylamino)methyl]-1-piperidinyl]acetyl]-5,11-dihydro-6H-pyrido[2,3-b][1,4]benzodiazepin-6-one] | – | susceptible to hydrolysis | easily degraded under the light irradiation
